The record followed here is ChEMBL document CHEMBL2390885, “Discovery of pyrido[2,3-d]pyrimidine-based inhibitors of HCV NS5A” (Bioorg Med Chem Lett, 2013).

In data set [1] the test system is Hepatitis C virus. Briefly: Antiviral activity against Hepatitis C virus genotype 1b by replicon assay. In kind it is functional, organism-based, Hepacivirus hominis.
For data set [2], the system named is Hepatitis C virus. The data set can be described thus: Antiviral activity against Hepatitis C virus genotype 1a by replicon assay. The format is functional, organism-based, Hepacivirus hominis. As to conditions: subtype 1a.
Data set [3] can be described thus: Half life in Sprague-Dawley rat at 5 mg/kg, iv. In kind it is ADME, organism-based. Also on record: dose 5 mg/kg, route intravenous. As to conditions: in vivo.
The nature of data set [4]: Cmax in Sprague-Dawley rat at 5 mg/kg, po. Also on record: dose 5 mg/kg, route oral. As to conditions: in vivo. The format is ADME, organism-based.
Data set [5] is described as follows: Clearance in Sprague-Dawley rat at 5 mg/kg, iv. Also on record: dose 5 mg/kg, route intravenous. To be noted: in vivo. The format is ADME, organism-based.
A short description of data set [6]: Half life in Sprague-Dawley rat at 5 mg/kg, po. The format is ADME, organism-based. The arrangement: dose 5 mg/kg, route oral. As to conditions: in vivo.
A short description of data set [7]: Oral bioavailability in Sprague-Dawley rat at 5 mg/kg. In kind it is ADME, organism-based. As to conditions: in vivo.
A short description of data set [8]: AUC in Sprague-Dawley rat at 5 mg/kg, po. Also on record: dose 5 mg/kg, route oral. The format is ADME, organism-based. To be noted: plasma.

The structures appear in SMILES notation.

By EC50 is commonly meant the concentration needed to bring the measured effect to its halfway point. As to `CC(C)c1ccc2c(Nc3cc(C(=O)NC(C)c4cccnc4)ccc3Sc3ccc(N)cc3)ncnc2n1` (stereo not given), the EC50 in data set [1] worked out at 377 nM; in data set [2], 1420 nM.
The like results for `C[C@H](NC(=O)c1ccc(Sc2ccc(N)cc2)c(Nc2ncnc3nc(C(C)(C)C)ccc23)c1)c1ccccc1` were, in that order, 3 nM and 46 nM.
`COc1cccc([C@H](C)NC(=O)c2ccc(Sc3ccc(N)cc3)c(Nc3ncnc4nc(C(C)C)ccc34)c2)c1`: the EC50 in data set [1] was 4 nM; in data set [2] it was 24 nM.
As for `Cc1ccccc1C(C)NC(=O)c1ccc(Sc2ccc(N)cc2)c(Nc2ncnc3nc(C(C)C)ccc23)c1` (stereo not given), the EC50 in data set [1] stood at 30 nM; in data set [2] it was 300 nM.
The like results for `CC(C)c1ccc2c(Nc3cc(C(=O)NC(C)c4cccc(F)c4)ccc3Sc3ccc(N)cc3)ncnc2n1` (stereo not given) were, in that order, 15 nM and 92 nM.
Turning to `CC(C)c1ccc2c(Nc3cc(C(=O)NC(C)c4cccs4)ccc3Sc3ccc(N)cc3)ncnc2n1` (stereo not given), the EC50 in data set [1] was determined as 159 nM; in data set [2], 378 nM.
On to `CC(C)c1ccc2c(Nc3cc(C(=O)NC(C)c4ccccc4F)ccc3Sc3ccc(N)cc3)ncnc2n1` (stereo not given), for which the half-maximal effective concentration (EC50) is 20 nM in data set [1] and 280 nM in data set [2].
For orientation: half-life means the time needed for the level to fall by half in the phase considered. A lower half-life goes with fast loss. In general, Cmax refers to the peak of the concentration-time curve. One may read the clearance as the volume of plasma or blood freed of the substance per unit of time. Read a high clearance as a high capacity for elimination. The term bioavailability denotes dose-corrected exposure relative to a reference, in per cent. Low values mean little systemic uptake, high ones much systemic uptake. One may read the AUC as the area under the concentration-time curve, a measure of exposure. A higher AUC goes with high exposure. In the case of `CC(C)c1ccc2c(Nc3cc(C(=O)N[C@@H](C)C4CCCCC4)ccc3Sc3ccc(N)cc3)ncnc2n1`, the half-life in data set [3] was 0.5 h; in data set [6], 0.8 h. In data set [4], this compound registered a Cmax of 200 ng/mL. The same compound gave a clearance in data set [5] of 21.5 mL/min/kg. In addition, the EC50 was 45 nM in data set [1] and 240 nM in data set [2]. In data set [7], this compound had a bioavailability of 5%. For the same compound, the AUC in data set [8] was 250 ng·h/mL.
As to `CC(C)c1ccc2c(Nc3cc(C(=O)N[C@@H](C)c4ccc(Br)cc4)ccc3Sc3ccc(N)cc3)ncnc2n1`, the half-life was 1.9 h in data set [3] and 2 h in data set [6]. The compound also displayed a Cmax in data set [4] of 330 ng/mL. Also, the clearance in data set [5] is 5.67 mL/min/kg. The concentration giving a half-maximal response (EC50) in data set [1] was 4 nM; in data set [2], 16 nM. For the same compound, the bioavailability in data set [7] amounted to 24.9%. Besides, the area under the curve (AUC) in data set [8] was determined as 3840 ng·h/mL.
For `CC(C)c1ccc2c(Nc3cc(C(=O)N[C@H](CO)c4ccccc4)ccc3Sc3ccc(N)cc3)ncnc2n1`, the EC50 in data set [1] stood at 237 nM; in data set [2] it was 3030 nM.
For the compound `CC(C)c1ccc2c(Nc3cc(C(=O)N[C@H](c4ccccc4)C(F)(F)F)ccc3Sc3ccc(N)cc3)ncnc2n1`, the figures for the half-life in data set [3] and in data set [6] were 2.9 h and 1.8 h, respectively. This compound gave a Cmax in data set [4] of 930 ng/mL. The compound further gave a clearance in data set [5] of 4 mL/min/kg. For the same compound, the concentration giving a half-maximal response (EC50) in data set [1] came to 2 nM; in data set [2] it was 13 nM. The compound also yielded a bioavailability in data set [7] of 18.7%. In data set [8], this compound showed an AUC of 3890 ng·h/mL.
For `C[C@H](NC(=O)c1ccc(Sc2ccc(N)cc2)c(Nc2ncnc3nc(C(F)(F)F)ccc23)c1)c1ccccc1`, the results for the EC50 in data set [1] and in data set [2] were 250 nM and 200 nM, respectively.
Turning to `CC(C)c1ccc2c(Nc3cc(C(=O)N[C@@H](C)c4ccccc4)ccc3Oc3ccc(N)cc3)ncnc2n1`, the figures for the EC50 in data set [1] and in data set [2] were 790 nM and 2310 nM, respectively.
For `CC(=O)Nc1ccc(Sc2ccc(C(=O)N[C@@H](C)c3ccccc3)cc2Nc2ncnc3nc(C(C)C)ccc23)cc1` the same measures were 149 nM and 5030 nM.
With `CC(C)c1ccc2c(Nc3cc(C(=O)NC(C)c4ccncc4)ccc3Sc3ccc(N)cc3)ncnc2n1` (stereo not given), the figures for the EC50 in data set [1] and in data set [2] were 331 nM and 1170 nM, respectively.
For `CC(C)c1ccc2c(Nc3cc(C(=O)N[C@](C)(CO)c4ccccc4)ccc3Sc3ccc(N)cc3)ncnc2n1`, the figures for the EC50 in data set [1] and in data set [2] were 60 nM and 1200 nM, respectively.
Regarding `Cc1ccc([C@H](C)NC(=O)c2ccc(Sc3ccc(N)cc3)c(Nc3ncnc4nc(C(C)C)ccc34)c2)cc1`, the half-life in data set [3] was 0.7 h; in data set [6] it was 2.6 h. In data set [4], this compound displayed a Cmax of 160 ng/mL. This compound gave a clearance in data set [5] of 18.3 mL/min/kg. Further, the EC50 in data set [1] stood at 5 nM; in data set [2], 22 nM. This compound also had a bioavailability in data set [7] of 12.2%. Also, in data set [8], the AUC worked out at 600 ng·h/mL.
On to `Cc1ccc2c(Nc3cc(C(=O)N[C@@H](C)c4ccccc4)ccc3Sc3ccc(N)cc3)ncnc2n1`, for which the EC50 in data set [1] came out at 600 nM; in data set [2], 1200 nM.
For the compound `CC(C)c1ccc2c(Nc3cc(C(=O)N[C@@H](C)c4ccccc4C(F)(F)F)ccc3Sc3ccc(N)cc3)ncnc2n1`, the EC50 is 20 nM in data set [1] and 370 nM in data set [2].
For `CC[C@@H](NC(=O)c1ccc(Sc2ccc(N)cc2)c(Nc2ncnc3nc(C(C)C)ccc23)c1)c1ccccc1` the same measures were 127 nM and 266 nM.
With `CC(C)c1ccc2c(Nc3cc(C(=O)NC(C)c4ccccn4)ccc3Sc3ccc(N)cc3)ncnc2n1` (stereo not given), the concentration for a half-maximal effect (EC50) was found to be 164 nM in data set [1] and 919 nM in data set [2].
The like results for `CC(C)c1ccc2c(Nc3cc(C(=O)N[C@H]4CCc5ccccc54)ccc3Sc3ccc(N)cc3)ncnc2n1` were, in that order, 54 nM and 451 nM.
For `C[C@H](NC(=O)c1ccc(Sc2ccc(N)cc2)c(Nc2ncnc3ncccc23)c1)c1ccccc1` the same measures were 6250 nM and 7890 nM.
Regarding `COc1ccccc1C(C)NC(=O)c1ccc(Sc2ccc(N)cc2)c(Nc2ncnc3nc(C(C)C)ccc23)c1` (stereo not given), the results for the EC50 in data set [1] and in data set [2] were 40 nM and 610 nM, respectively.
With `CC(C)c1ccc2c(Nc3cc(C(=O)NC(C)c4ccc(C(F)(F)F)cc4)ccc3Sc3ccc(N)cc3)ncnc2n1` (stereo not given), the results for the EC50 in data set [1] and in data set [2] were 41 nM and 66 nM, respectively.
Regarding `CC(C)c1ccc2c(Nc3cc(C(=O)N[C@@H](CCO)c4ccccc4)ccc3Sc3ccc(N)cc3)ncnc2n1`, the EC50 in data set [1] is 242 nM; in data set [2], 1470 nM.
On to `CC(C)c1ccc2c(Nc3cc(C(=O)N[C@@H](C)c4ccccc4)ccc3Sc3ccc(NS(C)(=O)=O)cc3)ncnc2n1`, for which the EC50 in data set [1] was 51 nM; in data set [2], 349 nM.
For `CC(C)c1ccc2c(Nc3cc(C(=O)N[C@@H](C)c4ccc5ccccc5c4)ccc3Sc3ccc(N)cc3)ncnc2n1` the same measures were 30 nM and 340 nM.
Turning to `CC(C)c1ccc2c(Nc3cc(C(=O)N[C@@H](C)c4ccccc4Br)ccc3Sc3ccc(N)cc3)ncnc2n1`, the concentration for a half-maximal effect (EC50) in data set [1] is 28 nM; in data set [2] it was 169 nM.
Take `CC(C)c1ccc2c(Nc3cc(C(=O)N[C@H](C)c4ccccc4)ccc3Sc3ccc(N)cc3)ncnc2n1`: the concentration giving a half-maximal response (EC50) in data set [1] was determined as 100 nM; in data set [2] it was 180 nM.
For the compound `CC(C)c1ccc2c(Nc3cc(C(=O)N[C@@H](C)c4ccccc4)ccc3Sc3ccc(O)cc3)ncnc2n1`, the results for the EC50 in data set [1] and in data set [2] were 120 nM and 690 nM, respectively.
As for `CC(C)c1ccc2c(Nc3cc(C(=O)N[C@@H]4CCc5ccccc54)ccc3Sc3ccc(N)cc3)ncnc2n1`, the EC50 in data set [1] came out at 13 nM; in data set [2] it was 16 nM.
For the compound `CC(C)c1ccc2c(Nc3cc(C(=O)N[C@H](CCO)c4ccccc4)ccc3Sc3ccc(N)cc3)ncnc2n1`, the results for the concentration giving a half-maximal response (EC50) in data set [1] and in data set [2] were 347 nM and 3270 nM, respectively.
As for `CC(C)c1ccc2c(Nc3cc(C(=O)N[C@@H](C)c4ccc(F)cc4)ccc3Sc3ccc(N)cc3)ncnc2n1`, the EC50 in data set [1] was 2 nM; in data set [2], 10 nM.
For `CC(C)c1ccc2c(Nc3cc(C(=O)N[C@@H](C)c4cccc(C(F)(F)F)c4)ccc3Sc3ccc(N)cc3)ncnc2n1` the same measures were 21 nM and 210 nM.
`CC(C)c1ccc2c(Nc3cc(C(=O)NC4(c5ccccc5)CC4)ccc3Sc3ccc(N)cc3)ncnc2n1`: the EC50 in data set [1] is 700 nM; in data set [2] it was 1070 nM.
In the case of `COc1ccc([C@H](C)NC(=O)c2ccc(Sc3ccc(N)cc3)c(Nc3ncnc4nc(C(C)C)ccc34)c2)cc1`, the EC50 was found to be 52 nM in data set [1] and 89 nM in data set [2].
With `CC[C@H](NC(=O)c1ccc(Sc2ccc(N)cc2)c(Nc2ncnc3nc(C(C)C)ccc23)c1)c1ccccc1`, the EC50 was 33 nM in data set [1] and 35 nM in data set [2].
For `CC(C)c1ccc2c(Nc3cc(C(=O)NC(C)c4cccc(Br)c4)ccc3Sc3ccc(N)cc3)ncnc2n1` (stereo not given) the same measures were 9 nM and 33 nM.
On to `Cc1cccc(C(C)NC(=O)c2ccc(Sc3ccc(N)cc3)c(Nc3ncnc4nc(C(C)C)ccc34)c2)c1` (stereo not given), for which the results for the EC50 in data set [1] and in data set [2] were 10 nM and 100 nM, respectively.
Regarding `COC(=O)Nc1ccc(Sc2ccc(C(=O)N[C@@H](C)c3ccccc3)cc2Nc2ncnc3nc(C(C)C)ccc23)cc1`, the half-life in data set [3] is 0.4 h. The clearance in data set [5] was 12.8 mL/min/kg. In addition, the EC50 in data set [1] turned out to be 4 nM; in data set [2], 42 nM. The same compound displayed a bioavailability in data set [7] of 0%.
In the case of `CC(C)c1ccc2c(Nc3cc(C(=O)NCc4ccccc4)ccc3Sc3ccc(N)cc3)ncnc2n1`, the EC50 in data set [1] is 130 nM; in data set [2], 150 nM.
Take `CC(C)c1ccc2c(Nc3cc(C(=O)NC(C)(C)c4ccccc4)ccc3Sc3ccc(N)cc3)ncnc2n1`: the values for the EC50 in data set [1] and in data set [2] were 181 nM and 284 nM, respectively.
`CC(C)c1ccc2c(Nc3cc(C(=O)N[C@@H](CO)c4ccccc4)ccc3Sc3ccc(N)cc3)ncnc2n1`: the values for the EC50 in data set [1] and in data set [2] were 314 nM and 4570 nM, respectively.
